Results as given in patent US8354454B2, “Prodrugs of oxazolidinone CETP inhibitors” (Merck Sharp & Dohme Corp., priority 2008, dated 2013).

Assay: physchem
Settings: buffer, pH 7.68
Description: 50 μL aliquots were removed periodically. […] Each aliquot was diluted with MeCN-d3 (150 μL), and a ^1H NMR spectrum was acquired (128 scans at 25° C., with acquisition starting 3 minutes after the aliquot was taken from the reaction).
The methods for determining the half-lives were approximately the same as described above, with variations in procedure depending on such variables as solubility and reaction rates.

Compound: COc1cc(F)c(C(C)C)cc1-c1ccc(C(F)(F)F)cc1CN[C@@H](C)[C@H](OC(=O)OC(COP(=O)(O)O)COP(=O)(O)O)c1cc(C(F)(F)F)cc(C(F)(F)F)c1 [Example 47, (8R,9S)-8-[3,5-bis(trifluoromethyl)phenyl]-N-{[4′-fluoro-5′-isopropyl-2′-methoxy-4-(trifluoromethyl)biphenyl-2-yl]methyl}-1,1-dihydroxy-6-oxo-4-[(phosphonooxy)methyl]-2,5,7-trioxa-1λ^5-phosphadecan-9-aminium1-oxide chloride]
- half-life: ~2.5 h
